Values joined by “and” are separate entries in the source; they are usually repeats but may differ in a detail not shown here. Equal values may be shown once.
How the values were obtained:
[1] = system: CHO cell line that expresses an antibody; experiment: Batch experiment with the substances according to the invention (Example 1); assay type: cell-based, Chinese hamster; details: batch mode, substance 0.5-1 g/l, basal medium glucose 4.7 g/l, glutamine […]
Experimental: Cells were stored in the gas phase of liquid nitrogen. One to two ampoules were thawed in nutrient medium preheated to 37° C. and transferred to spinner bottles, shaking flasks or T-bottles. In the first few days of cultivation the medium was changed, depending on the clone.
Depending on the clone, cells were split either every second day or every third day or after two and three days alternately into new medium, i.e. a portion of the cell suspension was removed from culture and a smaller portion of the cell suspension was reused as inoculum for the next culture. This inoculum was made up with fresh prewarmed nutrient medium. Cells were incubated at 37° C. in an incubator with a CO2 atmosphere. An alternative for incubating cells was cultivation in an incubation chamber at 37° C., in this way cells were held in culture for several passages. A passage means a cultivation time of two to three days. At various points of time, cell suspension was taken from strain maintenance and used as inoculum for experiments. The experiments were carried out in various cultivation systems, for example in spinner bottles, T-bottles, shaking flasks, culture tubes or in controlled bioreactors.
(§1) Feed took place at regular intervals.

[2] = system: CHO cell line that expresses an antibody; experiment: Fed-batch experiment with the substances according to the invention (Example 2, Table 2); assay type: cell-based, Chinese hamster; design: Viabil.: concentration or dose not given beside the values
From the text: as §1

Structure (SMILES): O=C(O)CCCCC(=O)O [Adipic acid]
- Gln ([1]; day 0): 1.53 mM
- Glucose ([1]; day 0): 4.69 g/L
- Lactate ([1]; day 0): 0 g/L
- NH4 ([1]; day 0): 1.22 mM
- Specific Glutamin consumption (Gln/VCD) ([1]; day 0): 1.49
- Specific ammonia production (NH4/VCD) ([1]; day 0): 1.18
- Specific glucose consumption (Gluc/VCD) ([1]; day 0): 4.55
- Specific lactate production (Lac/VCD) ([1]; day 0): 0.00
- Total Cell Density TCD ([1]; day 0): 1.07 E5/ml
- Viabil. ([1]; day 0): 96%
- Viable Cell Density (VCD) ([1]; day 0): 1.03 E5/ml
- Gln ([1]; day 3): 0.86 mM
- Glucose ([1]; day 3): 4.28 g/L
- Lactate ([1]; day 3): 0.62 g/L
- NH4 ([1]; day 3): 1.81 mM
- Specific Glutamin consumption (Gln/VCD) ([1]; day 3): 0.12
- Specific ammonia production (NH4/VCD) ([1]; day 3): 0.25
- Specific glucose consumption (Gluc/VCD) ([1]; day 3): 0.60
- Specific lactate production (Lac/VCD) ([1]; day 3): 0.09
- Total Cell Density TCD ([1]; day 3): 7.2 E5/ml
- Viabil. ([1]; day 3): 99%
- Viable Cell Density (VCD) ([1]; day 3): 7.1 E5/ml
- Gln ([1]; day 6): 0.22 mM
- Glucose ([1]; day 6): 2.95 g/L
- Lactate ([1]; day 6): 0.93 g/L
- NH4 ([1]; day 6): 2.67 mM
- Specific Glutamin consumption (Gln/VCD) ([1]; day 6): 0.01
- Specific ammonia production (NH4/VCD) ([1]; day 6): 0.07
- Specific glucose consumption (Gluc/VCD) ([1]; day 6): 0.07
- Specific lactate production (Lac/VCD) ([1]; day 6): 0.02
- Total Cell Density TCD ([1]; day 6): 41.6 E5/ml
- Viabil. ([1]; day 6): 98%
- Viable Cell Density (VCD) ([1]; day 6): 40.6 E5/ml
- Gln ([1]; day 8): 0.32 mM
- Glucose ([1]; day 8): 1.94 g/L
- Lactate ([1]; day 8): 0.95 g/L
- NH4 ([1]; day 8): 3 mM
- Specific Glutamin consumption (Gln/VCD) ([1]; day 8): 0.02
- Specific ammonia production (NH4/VCD) ([1]; day 8): 0.20
- Specific glucose consumption (Gluc/VCD) ([1]; day 8): 0.13
- Specific lactate production (Lac/VCD) ([1]; day 8): 0.06
- Total Cell Density TCD ([1]; day 8): 17.1 E5/ml
- Viabil. ([1]; day 8): 87%
- Viable Cell Density (VCD) ([1]; day 8): 14.9 E5/ml
- Gln ([1]; day 11): 0.49 mM
- Glucose ([1]; day 11): 0.89 g/L
- Lactate ([1]; day 11): 1.28 g/L
- NH4 ([1]; day 11): 3.38 mM
- Specific Glutamin consumption (Gln/VCD) ([1]; day 11): 0.05
- Specific ammonia production (NH4/VCD) ([1]; day 11): 0.32
- Specific glucose consumption (Gluc/VCD) ([1]; day 11): 0.08
- Specific lactate production (Lac/VCD) ([1]; day 11): 0.12
- Total Cell Density TCD ([1]; day 11): 23 E5/ml
- Viabil. ([1]; day 11): 46%
- Viable Cell Density (VCD) ([1]; day 11): 10.6 E5/ml
- Total Cell Density TCD ([2]; day 0, fed-batch): 1.5 E5/ml
- Viabil. ([2]; day 0, fed-batch): 91%
- Viable Cell Density (VCD) ([2]; day 0, fed-batch): 1.37 E5/ml
- Total Cell Density TCD ([2]; day 2, fed-batch): 4.4 E5/ml
- Viabil. ([2]; day 2, fed-batch): 98%
- Viable Cell Density (VCD) ([2]; day 2, fed-batch): 4.3 E5/ml
- Total Cell Density TCD ([2]; day 5, fed-batch): 12 E5/ml and 11.8 E5/ml
- Viabil. ([2]; day 5, fed-batch): 98% and 95%
- Viable Cell Density (VCD) ([2]; day 5, fed-batch): 11.7 E5/ml and 11.2 E5/ml
- Total Cell Density TCD ([2]; day 8, fed-batch): 40 E5/ml and 36.3 E5/ml
- Viabil. ([2]; day 8, fed-batch): 91% and 92%
